# Results as given in PubChem BioAssay AID1996.
# Settings: buffer; pH 7.4; 200.0 µM
row,SMILES,solubility kinetic [µg/mL]
1,CCSC1=C(C#N)C(c2ccc(C)o2)CC(=O)N1 (stereo not drawn),> 39.3
2,O=C(CN1CCN(c2ccc([N+](=O)[O-])cc2Cl)CC1)N1CCOCC1,54.9
3,Cc1ccc(C(=O)NCCCN2CCOCC2)c(C)c1,> 41.5
4,CN1C(=S)SC2CS(=O)(=O)CC21 (stereo not drawn),> 33.5
5,CCC(C)c1ccccc1NC(=O)c1[nH]c(C)c(C(C)=O)c1C (stereo not drawn),2
6,COC(=O)CSc1[nH]c2cc(C)ccc2c1[N+](=O)[O-],> 42
7,CNC(=O)N1CCC(C(=O)c2c(C)c(C)c(C)c(C)c2C)CC1,36.5
8,COC(=O)c1scc(S(=O)(=O)C(C)(C)C)c1-n1cccc1,35.6
9,Cc1occc1C(=O)Nc1ccc([N+](=O)[O-])cc1Br,1.7
10,Cc1noc(C)c1C(=O)OCC(=O)Nc1ccc(N2CCOCC2)cc1,7.6
11,O=C(O)c1ccc(Cn2cnc3cccnc32)cc1,> 38
12,Cc1nnc(SCC(=O)N(C)C2CCCCC2)n1C,> 42.4
13,CC(C)(C)c1csc(Sc2ncccc2[N+](=O)[O-])n1,1.7
14,C=CCn1c(O)c(N=O)c2ccccc21,> 30.3
15,O=C(O)C1CC=CCC1C(=O)Nc1ccc2c(c1)CCC2 (stereo not drawn),> 42.8
16,O=C(NCCN1CCOCC1)c1cc([N+](=O)[O-])cc([N+](=O)[O-])c1,> 48.6
17,CC1(C)CC2CC(C)(CN2C(=O)COC(=O)c2cccnc2Cl)C1 (stereo not drawn),> 52.6
18,CC(C)(C)CC(=O)Nc1cc2c3c(c1)CCC(=O)N3CCC2,43.2
19,Cc1ccc([N+](=O)[O-])cc1N,13.5
20,CCOc1ccc(-c2cnc3n2CCCCC3)cc1,32
21,CC1NC(=S)N(Cc2ccccc2)C1=O (stereo not drawn),31.9
22,Cc1cccc(NC(=S)NC2CC3C=CC2C3)c1 (stereo not drawn),6.2
23,Cc1cc(C)c(S(=O)(=O)NC2CC(C)(C)NC(C)(C)C2)cc1C,33.5
24,COc1ccc(C)cc1-n1c(C)cc(C=O)c1C,36.4
25,O=C(Cc1ccc(F)cc1)NCCc1cnc[nH]1,> 37.1

# Results, then the molecule that gave them:
row,solubility kinetic [µg/mL],SMILES
1,> 44,O=S(=O)(c1ccccc1)N1CCCC1c1cccs1 (stereo not drawn)
2,7.5,COc1ccccc1N1CCN(Cc2ccc(O)c3ncccc23)CC1
3,3.7,O=C1CSc2ccc(C(=O)NCCc3ccc(Cl)cc3Cl)cc2N1
4,47.3,CC1=C(C(=O)OC(C)C)C(c2ccc3c(c2)OCO3)NC(=O)N1 (stereo not drawn)
5,21.8,COc1ccc(NC(=O)CCN2C(=O)c3ccccc3C2=O)c(OC)c1
6,3.8,CC(=O)Nc1ccc(C(=O)OCC(=O)N(c2ccccc2)C2CCCCC2)cc1
7,> 66.5,O=C(O)CCC(=NNC(=O)c1cccc(S(=O)(=O)N2CCCCC2)c1)c1ccccc1
8,11.4,Cc1cccc(NC(=O)CN(C)C(=O)c2ccc(N3CCCCCC3)c([N+](=O)[O-])c2)c1C
9,46.5,Cc1cc(C(=O)CCC(=O)N2CCN(c3ccccc3)CC2)c(C)s1
10,50.7,COS(=O)(=O)[O-].Cn1c(Cc2ccccc2)[n+](C)c2ccccc21
11,> 34.7,CC(NC(=O)c1cccs1)c1ccccc1 (stereo not drawn)
12,< 0.2,O=C(Nc1ccccc1)Nc1nc(-c2ccccc2)cs1
13,0.8,CC(=O)c1cccc(NC(=O)c2ccc3c(c2)CCCC3)c1
14,> 35.7,O=c1[nH]c2ccccc2[n+]([O-])c1-c1ccccc1
15,> 53.8,Cc1c(NC(=O)Nc2ccc(F)cc2F)c(=O)n(-c2ccccc2)n1C
16,1.8,O=c1nc(-c2ccccc2)c2cc(Br)ccc2[nH]1
17,38.1,Cc1c(C(=O)OCC(=O)N(C)c2ccccc2)cccc1[N+](=O)[O-]

row,solubility kinetic [µg/mL],SMILES
1,9.4,COc1ccccc1CNC(=O)c1ccc(NC(=O)CC2SC(N3CCCC3)=NC2=O)cc1 (stereo not drawn)
2,11.7,CC(C)(C)c1ccc(OCC(O)CN2CCc3ccccc3C2)cc1.Cl (stereo not drawn)
3,0.4,Cc1cc(C)cc(NC2=C(N)C(=O)c3ccccc3C2=O)c1
4,> 48.5,O=C(CN1CCOCC1)NN=C(c1ccccc1)c1ccccc1
5,> 70.9,CC(=O)Nc1ccc(S(=O)(=O)N(C)CC(=O)NNC(=O)Cc2nc3ccccc3n2C)cc1
6,> 47.9,COc1cccc(/C=C/C(=O)OCC(=O)N2CCCC2)c1OC
7,< 0.4,COc1ccccc1-c1nc(COc2ccc(Cl)cc2Cl)no1
8,28.7,O=c1c2ccccc2nc2ccccn12
9,9.2,CN(C1CCS(=O)(=O)C1)S(=O)(=O)c1ccc2ccccc2c1 (stereo not drawn)
10,56.7,C=CCN(c1ccccc1OC)S(=O)(=O)c1cccc(C(=O)OC2CCOC2=O)c1 (stereo not drawn)
11,> 49.4,CC1(C)Cc2cccc(OCC(=O)NCc3ccccc3F)c2O1
12,< 0.4,COC(=O)c1cc(Nc2cc(C)c3c(O)cccc3n2)cc(C(=O)OC)c1
13,0.9,O=C1CC(C(=O)Nc2cccc(F)c2)n2c(nc3ccccc32)N1 (stereo not drawn)
14,52.3,COc1ccccc1C(=O)NCCC(=O)N1CCCC(C(F)(F)F)C1 (stereo not drawn)
15,> 41.9,COc1ccccc1-n1nc(C)c(-c2ccccc2)c1N
16,41.1,CC(c1ccccc1)C1CC(=O)N(c2ccccc2)C1=O (stereo not drawn)
